From patent publication EP4467141A1, “PYRAZOLO-QUINOLINES AS SELECTIVE INHIBITORS OF GENOTOXIC STRESS-INDUCED IKK/NF- KB PATHWAYS FOR CANCER THERAPY” (Max-Delbrück-Centrum für Molekulare Medizin in der …, priority 2023, dated 2024)

Legend:
IKKγ = IKKγ phosphorylation (S85) and mono-ubiquitination after irradiation (immunoprecipitation / Western blot); type: cell-based; settings: irradiation (IR, 20 Gy); 1 hour pre-treatment
Method: Fig.7: (A) Immunoprecipitation of IKKγ from HEK293 lysates pre-treated for 1 hour with DMSO, MW01 or MW05, then irradiated (IR, 20 Gy) and lysed. (B) Western blot analysis of MEF cells pre-treated with DMSO, MW01, MW05 or ATM inhibitor KU55933 and irradiated (IR, 20 Gy). Lysates were subjected to SDS-PAGE/WB. The specific IKKγ S85 band (lower band) was identified by induction following irradiation and by sensitivity to ATMi and λ- phosphatase (λ-PP) treatment. (C) Western blot analysis of U2os cells pre-treated for 1 hour with the indicated substances, irradiated (IR, 20 Gy) and whole cell lysates probed for poly(ADP)-ribose. (D) Western blot analysis of cytoplasmic and nuclear fractions from U2-OS cells for p-ATM (S 1981), after 1 hour pre-treatment with DMSO, MW01 (10 µM), or MW05 (10 µM) and 45 min following irradiation (IR, 20 Gy). PARP1 and LDHA are used as loading controls for nuclear and cytoplasmic fractions respectively. […]
To identify inhibitors that selectively prevent DNA damage-induced NF-κB activation, we established a high-throughput screening platform quantifying p65 nuclear translocation, an essential step in NF-κB activation (Hayden and Ghosh, 2008). […] The IC50s of p65 nuclear translocation following both stimuli were determined for 21 compounds. […]

BIRC3 = assay: RT-qPCR mRNA expression analysis of BIRC3 in U2-OS cells after irradiation; type: cell-based; settings: 10 µM, 8 hours after 10 Gy irradiation

Structure (SMILES)	IR-induced IKKy phosphorylation and mono-ubiquitination (IKKγ)	upregulation of anti-apoptotic NF-κB target gene BIRC3 (BIRC3)
COc1ccc2c(c1OC)c(=O)n1c3ccc(O)cc3c3ccnc2c31 [MW01, 5-Hydroxy-10,11-dimethoxy-9H-benzo[c]indolo[3,2,1-ij][1,5]naphthyridin-9-one]	inhibited	abolished
COc1ccc2cc3c(N)nn(C(=O)c4cccc(N(C)C)c4)c3nc2c1 [MW05, (3-Amino-7-methoxypyrazolo[3,4-b]quinolin-1-yl)-[3-(dimethylamino)phenyl]methanone]	inhibited	abolished
